Columns and labels:
PC-9 lung cancer cells = assay: Anticancer effect in mouse model with PC-9 lung cancer cells; type: in vivo, Balb/c Nude Mice; conditions: PC-9 model
Procedure: The PC-9 cell line was purchased from NanJing Cobioer Biological Technology Co., Ltd. Cells were kept in RPMI-1640 containing 10% FBS, and cultured in a 37° C. humidified cell culture incubator at 5% […]. All animal experiments were carried out according to the Animal Use and Management Guidelines of Shanghai Medicilon Inc. Under sterile conditions, 2×10^6 PC-9 tumor cells (0.1 mL, cell:Matrigel®=1:1) was administered to the right waist of each animal by S.C. administration. Tumor size and animal body weight were measured twice weekly, and clinical symptoms were recorded daily. The mice will be administered individually according to most recent body weight. The tumors were measured using calipers using two measurements, length (a) and width (b). The volume of the tumors was calculated individually as follows, from the two measured diameters of the tumors: tumor volume (mm^3)=(a×b^2)/2.

NCI-H2228 = assay: EGFR expression and signalling after treatment, western blot; type: cell-based; conditions: FIG. 7
Procedure: For the Ba/F3 EGFR L858R/T790M/C797S cell line, Ba/F3 naive cells purchased from DSMZ were transfected with EGFR L858R/T790M/C797S […] DNA using lipofectamine, and a cell line selected using 1 μg/ml puromycin for 2 weeks was used. Here, the culture medium used was RPMI-1640 with 10% FBS and 1% penicillin streptomycin. The NCI-H2228 and CAL-27 cell lines were purchased from ATCC, and for culturing RPMI-1640 with 10% FBS and 1% penicillin streptomycin was used for NCI-H2228, while for CAL-27 DMEM with 10% FBS and 1% penicillin streptomycin was used.
As needed, culturing was performed for 1 hour with Cyclohexamine at 30 μg/mL concentration, followed by 15 minutes EGF treatment at a concentration of 100 ng/mL. For the phosphoarray experiment, DYRK1a siRNA was reacted with HEK293T cells for 48 hours at 30 nM concentration, confirming inhibition of DYRK1a expression in the cells. These were used as the control for the main experiment.

PC-9 cell line = assay: Lung cancer cell colony formation inhibition; type: cell-based, human; conditions: concomitant treatment with Gefitinib or Osimertinib, vs single treatment or Harmine, from 10 days, FIG. 1
Text: Specifically, the PC-9 cell line was purchased from the ECACC (European Collection of Authenticated Cell Cultures), and RPMI-1640 with 10% FBS and 1% penicillin streptomycin was used. PC-9GR cells cultured with slow and sustained exposure to Gefitinib (manufactured by Selleckchem) were serially cultured with 1 μmol/L Gefitinib.
(§1) The remaining colony-forming cells were fixed with methanol (1%) and formaldehyde (1%), then dyed with 0.5% crystal violet before photographing each well.

[1] = test system: Ba/F3 EGFR L858R/T790M/C797S cells; assay: Cell growth inhibition, celltiterglo; type: cell-based; conditions: 72 hours, concomitant use with Osimertinib, compared with same amount of Harmine, FIG. 8
Procedure: The cells were treated for 72 hours using a serially diluted compound. The cell activity inhibition results for the compounds were measured using celltiterglo.

H1975 cell line = assay: Lung cancer cell colony formation inhibition; type: cell-based; conditions: concomitant treatment with Gefitinib or Osimertinib, vs single treatment or Harmine, from 10 days, FIG. 1
Text: Specifically, the H1975 cell line was purchased from the ATCC (American Type Culture Collection, and RPMI-1640 with 10% FBS and 1% penicillin streptomycin was used.
as §1

3LL lung cancer = assay: Anticancer effect in 3LL lung cancer transplant mouse model; type: in vivo, female C57BL/6 mouse
Procedure: (§2) The 3LL cells were cultured in Hams F10:L15=3:7 culture medium, the EMT-6 cells were cultured in Waymouth's MB 752/1 culture medium, and the MC38 cells were cultured in a DMEM culture medium with 10% FBS and 1% penicillin streptomycin, at 37° C. in a 5% CO2 humidified cell culture incubator.
The mouse PD-1 antibody (BE-0146), PD-L1 antibody (BE-0101), and CTLA-4 antibody (BE-0131) were purchased from BioXcell.
(§3) All animal tests were carried out through WuXi AppTec.

EMT6 breast cancer = assay: Anticancer effect in EMT6 breast cancer transplant mouse model; type: in vivo, female C57BL/6 mouse; conditions: singular treatment, 45, 60, 75 mg/kg po BID, FIG. 6a
Procedure: as §2, §3

LRRK2 (G2019S) = molecular target: T1, LRRK2 (G2019S) (Homo sapiens, UniProt Q5S007, G2019S); assay: scanMAX Kinase analysis panel (DiscoverX); type: binding; conditions: 1 μM in DMSO
T1 construct: purchased DiscoverX
T1 sequence (Q5S007 whole entry G2019S): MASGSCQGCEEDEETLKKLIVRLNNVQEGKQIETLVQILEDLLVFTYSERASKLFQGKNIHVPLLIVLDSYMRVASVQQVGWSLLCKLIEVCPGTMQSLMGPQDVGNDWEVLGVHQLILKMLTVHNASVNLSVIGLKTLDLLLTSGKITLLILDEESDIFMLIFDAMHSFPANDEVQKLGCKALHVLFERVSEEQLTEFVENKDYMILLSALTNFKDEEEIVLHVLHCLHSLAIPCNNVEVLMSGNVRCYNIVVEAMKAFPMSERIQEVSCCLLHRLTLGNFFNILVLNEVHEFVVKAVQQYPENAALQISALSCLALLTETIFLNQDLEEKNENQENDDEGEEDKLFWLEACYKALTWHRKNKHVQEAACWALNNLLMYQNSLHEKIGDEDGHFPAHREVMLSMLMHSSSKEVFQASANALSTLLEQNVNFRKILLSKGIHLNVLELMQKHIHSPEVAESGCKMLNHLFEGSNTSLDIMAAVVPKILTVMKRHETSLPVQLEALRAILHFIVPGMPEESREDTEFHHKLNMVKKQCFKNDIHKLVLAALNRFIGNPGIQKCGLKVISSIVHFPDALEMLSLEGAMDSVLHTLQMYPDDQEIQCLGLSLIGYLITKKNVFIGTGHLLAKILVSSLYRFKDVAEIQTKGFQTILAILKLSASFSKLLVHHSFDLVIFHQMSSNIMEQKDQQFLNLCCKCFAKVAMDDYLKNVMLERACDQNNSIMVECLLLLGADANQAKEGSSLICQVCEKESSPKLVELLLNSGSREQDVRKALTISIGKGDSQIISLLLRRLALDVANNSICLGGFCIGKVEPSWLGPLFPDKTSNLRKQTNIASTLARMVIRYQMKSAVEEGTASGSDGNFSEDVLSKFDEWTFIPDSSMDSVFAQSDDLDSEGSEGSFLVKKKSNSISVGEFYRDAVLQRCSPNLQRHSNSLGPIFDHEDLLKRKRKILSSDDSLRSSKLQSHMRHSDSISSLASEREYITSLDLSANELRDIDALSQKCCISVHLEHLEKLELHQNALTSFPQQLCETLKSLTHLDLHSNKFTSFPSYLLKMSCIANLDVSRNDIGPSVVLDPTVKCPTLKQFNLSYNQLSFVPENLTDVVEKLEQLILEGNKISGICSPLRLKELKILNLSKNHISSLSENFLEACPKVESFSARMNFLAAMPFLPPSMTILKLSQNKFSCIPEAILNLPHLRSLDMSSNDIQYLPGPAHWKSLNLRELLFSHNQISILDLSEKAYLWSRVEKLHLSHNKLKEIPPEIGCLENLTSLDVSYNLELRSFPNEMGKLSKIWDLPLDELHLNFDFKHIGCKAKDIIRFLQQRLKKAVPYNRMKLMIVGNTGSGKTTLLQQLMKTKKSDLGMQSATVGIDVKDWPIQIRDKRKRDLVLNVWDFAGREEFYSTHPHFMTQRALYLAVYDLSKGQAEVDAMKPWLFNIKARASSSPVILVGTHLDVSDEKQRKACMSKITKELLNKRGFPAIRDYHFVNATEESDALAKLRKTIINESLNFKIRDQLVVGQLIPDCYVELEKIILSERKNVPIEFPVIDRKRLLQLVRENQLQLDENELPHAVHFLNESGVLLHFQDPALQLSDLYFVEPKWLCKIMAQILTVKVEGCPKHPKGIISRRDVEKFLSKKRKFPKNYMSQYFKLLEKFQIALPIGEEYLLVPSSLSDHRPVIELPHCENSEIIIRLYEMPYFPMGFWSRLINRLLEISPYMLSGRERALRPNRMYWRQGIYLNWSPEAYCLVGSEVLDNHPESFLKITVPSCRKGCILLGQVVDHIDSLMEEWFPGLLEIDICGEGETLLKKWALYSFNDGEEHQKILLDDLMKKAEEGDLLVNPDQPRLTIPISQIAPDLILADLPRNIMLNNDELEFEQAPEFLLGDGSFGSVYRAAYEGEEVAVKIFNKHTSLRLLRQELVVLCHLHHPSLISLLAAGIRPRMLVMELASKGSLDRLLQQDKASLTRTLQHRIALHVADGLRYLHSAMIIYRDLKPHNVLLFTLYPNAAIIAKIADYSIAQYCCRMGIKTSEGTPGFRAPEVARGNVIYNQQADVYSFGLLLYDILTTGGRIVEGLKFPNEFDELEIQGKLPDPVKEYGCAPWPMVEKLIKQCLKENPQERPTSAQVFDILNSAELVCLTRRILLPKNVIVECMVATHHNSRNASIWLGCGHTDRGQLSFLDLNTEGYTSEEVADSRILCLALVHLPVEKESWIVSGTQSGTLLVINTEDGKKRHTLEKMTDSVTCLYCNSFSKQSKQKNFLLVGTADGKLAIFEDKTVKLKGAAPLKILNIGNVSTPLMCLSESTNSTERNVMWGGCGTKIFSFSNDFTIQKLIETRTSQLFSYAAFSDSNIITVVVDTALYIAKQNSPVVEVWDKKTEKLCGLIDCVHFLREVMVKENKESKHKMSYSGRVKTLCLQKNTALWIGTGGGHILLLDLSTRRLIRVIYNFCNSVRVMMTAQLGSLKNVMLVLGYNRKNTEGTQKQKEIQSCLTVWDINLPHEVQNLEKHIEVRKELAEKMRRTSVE
Text: (§4) [(Example Compound−Positive Control)/(Negative Control−Positive Control)×100]

INSR = molecular target: T2, INSR (Homo sapiens, UniProt P06213); assay: scanMAX Kinase analysis panel (DiscoverX); type: binding; conditions: 1 μM in DMSO
T2 construct: purchased DiscoverX scanMAX Kinase analysis panel
Text: as §4

STK33 = molecular target: T3, STK33 (Homo sapiens, UniProt Q9BYT3); assay: scanMAX Kinase analysis panel (DiscoverX); type: binding; conditions: 1 μM in DMSO
T3 construct: purchased DiscoverX
Text: as §4

GAK = molecular target: T4, GAK (Homo sapiens, UniProt O14976); assay: scanMAX Kinase analysis panel (DiscoverX); type: binding; conditions: 1 μM in DMSO
T4 construct: purchased DiscoverX
Text: as §4

HUNK = molecular target: T5, HUNK (Homo sapiens, UniProt P57058); assay: scanMAX Kinase analysis panel (DiscoverX); type: binding; conditions: 1 μM in DMSO
T5 construct: purchased DiscoverX scanMAX Kinase analysis panel
T5 sequence (P57058 whole entry): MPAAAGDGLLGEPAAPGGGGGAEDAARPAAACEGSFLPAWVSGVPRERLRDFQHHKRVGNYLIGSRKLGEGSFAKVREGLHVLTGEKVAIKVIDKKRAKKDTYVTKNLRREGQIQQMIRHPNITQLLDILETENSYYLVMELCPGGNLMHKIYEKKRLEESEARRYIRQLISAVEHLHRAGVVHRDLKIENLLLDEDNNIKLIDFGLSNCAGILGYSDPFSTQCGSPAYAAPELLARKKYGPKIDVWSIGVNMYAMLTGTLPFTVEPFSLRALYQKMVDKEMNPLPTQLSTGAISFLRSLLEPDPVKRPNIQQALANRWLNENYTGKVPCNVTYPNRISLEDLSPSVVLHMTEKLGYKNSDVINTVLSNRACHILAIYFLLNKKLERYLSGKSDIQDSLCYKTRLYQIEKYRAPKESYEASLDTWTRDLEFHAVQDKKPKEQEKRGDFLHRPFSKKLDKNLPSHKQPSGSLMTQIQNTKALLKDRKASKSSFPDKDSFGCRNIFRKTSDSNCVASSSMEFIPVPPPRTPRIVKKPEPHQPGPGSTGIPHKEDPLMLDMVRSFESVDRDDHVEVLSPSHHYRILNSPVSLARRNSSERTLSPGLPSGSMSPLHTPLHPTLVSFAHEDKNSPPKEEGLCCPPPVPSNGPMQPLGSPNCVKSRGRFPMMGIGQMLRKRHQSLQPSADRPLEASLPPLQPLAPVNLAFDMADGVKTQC
Text: as §4

PHKG1 = molecular target: T6, PHKG1 (Homo sapiens, UniProt Q16816); assay: scanMAX Kinase analysis panel (DiscoverX); type: binding; conditions: 1 μM in DMSO
T6 construct: purchased DiscoverX
T6 sequence (Q16816 whole entry): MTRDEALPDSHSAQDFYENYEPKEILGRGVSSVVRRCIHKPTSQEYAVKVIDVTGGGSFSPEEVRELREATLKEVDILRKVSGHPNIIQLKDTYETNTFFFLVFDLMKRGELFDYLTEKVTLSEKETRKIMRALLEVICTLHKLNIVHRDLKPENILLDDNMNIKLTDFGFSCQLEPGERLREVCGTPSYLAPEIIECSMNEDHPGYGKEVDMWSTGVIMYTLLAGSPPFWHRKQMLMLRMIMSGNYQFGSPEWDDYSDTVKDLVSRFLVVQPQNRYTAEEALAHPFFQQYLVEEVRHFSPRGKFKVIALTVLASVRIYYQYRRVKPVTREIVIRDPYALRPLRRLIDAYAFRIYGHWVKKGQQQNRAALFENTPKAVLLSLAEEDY
Text: as §4

PLK4 = molecular target: T7, PLK4 (Homo sapiens, UniProt O00444); assay: scanMAX Kinase analysis panel (DiscoverX); type: binding; conditions: 1 μM in DMSO
T7 construct: purchased DiscoverX scanMAX Kinase analysis panel
T7 sequence (O00444 whole entry): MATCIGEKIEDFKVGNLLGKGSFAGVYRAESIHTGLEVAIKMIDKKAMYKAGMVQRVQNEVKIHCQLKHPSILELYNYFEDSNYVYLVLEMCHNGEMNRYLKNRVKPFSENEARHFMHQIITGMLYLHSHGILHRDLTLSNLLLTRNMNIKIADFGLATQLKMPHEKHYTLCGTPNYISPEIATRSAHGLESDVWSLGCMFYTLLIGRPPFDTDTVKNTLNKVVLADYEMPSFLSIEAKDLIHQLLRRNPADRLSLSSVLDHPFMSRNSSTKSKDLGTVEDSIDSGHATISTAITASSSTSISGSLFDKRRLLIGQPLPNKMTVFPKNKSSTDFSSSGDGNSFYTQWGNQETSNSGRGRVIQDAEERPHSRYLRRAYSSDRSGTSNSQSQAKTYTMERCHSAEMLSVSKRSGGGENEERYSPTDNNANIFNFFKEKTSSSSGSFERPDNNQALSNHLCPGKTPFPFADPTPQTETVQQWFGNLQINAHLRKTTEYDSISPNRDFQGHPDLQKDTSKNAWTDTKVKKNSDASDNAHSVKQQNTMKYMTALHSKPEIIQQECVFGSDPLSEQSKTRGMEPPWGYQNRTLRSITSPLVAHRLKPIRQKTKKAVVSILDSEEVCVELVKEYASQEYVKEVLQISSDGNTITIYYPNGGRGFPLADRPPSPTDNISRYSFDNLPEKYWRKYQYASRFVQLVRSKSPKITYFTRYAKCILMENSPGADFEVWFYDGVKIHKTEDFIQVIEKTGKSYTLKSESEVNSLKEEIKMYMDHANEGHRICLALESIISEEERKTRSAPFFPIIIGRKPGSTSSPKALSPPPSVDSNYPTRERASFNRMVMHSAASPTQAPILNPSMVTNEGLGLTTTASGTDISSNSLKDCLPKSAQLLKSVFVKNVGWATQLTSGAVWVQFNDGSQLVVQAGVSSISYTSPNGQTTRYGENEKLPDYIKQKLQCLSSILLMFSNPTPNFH
Text: as §4

LRRK2 = molecular target: T8, LRRK2 (Homo sapiens, UniProt Q5S007); assay: scanMAX Kinase analysis panel (DiscoverX); type: binding; conditions: 1 μM in DMSO
T8 construct: purchased DiscoverX scanMAX Kinase analysis panel
T8 sequence (Q5S007 whole entry): as the sequence (Q5S007 whole entry G2019S) above, with S2019G counted along it
Text: as §4

CAMKK2 = molecular target: T9, CAMKK2 (Homo sapiens, UniProt Q96RR4); assay: scanMAX Kinase analysis panel (DiscoverX); type: binding; conditions: 1 μM in DMSO
T9 construct: purchased DiscoverX
Text: as §4

PHKG2 = molecular target: T10, PHKG2 (Homo sapiens, UniProt P15735); assay: scanMAX Kinase analysis panel (DiscoverX); type: binding; conditions: 1 μM in DMSO
T10 construct: purchased DiscoverX
Text: as §4

JNK3 = molecular target: T11, JNK3 (Homo sapiens, UniProt P53779); assay: scanMAX Kinase analysis panel (DiscoverX); type: binding; conditions: 1 μM in DMSO
T11 construct: purchased DiscoverX scanMAX Kinase analysis panel
T11 sequence (P53779 whole entry): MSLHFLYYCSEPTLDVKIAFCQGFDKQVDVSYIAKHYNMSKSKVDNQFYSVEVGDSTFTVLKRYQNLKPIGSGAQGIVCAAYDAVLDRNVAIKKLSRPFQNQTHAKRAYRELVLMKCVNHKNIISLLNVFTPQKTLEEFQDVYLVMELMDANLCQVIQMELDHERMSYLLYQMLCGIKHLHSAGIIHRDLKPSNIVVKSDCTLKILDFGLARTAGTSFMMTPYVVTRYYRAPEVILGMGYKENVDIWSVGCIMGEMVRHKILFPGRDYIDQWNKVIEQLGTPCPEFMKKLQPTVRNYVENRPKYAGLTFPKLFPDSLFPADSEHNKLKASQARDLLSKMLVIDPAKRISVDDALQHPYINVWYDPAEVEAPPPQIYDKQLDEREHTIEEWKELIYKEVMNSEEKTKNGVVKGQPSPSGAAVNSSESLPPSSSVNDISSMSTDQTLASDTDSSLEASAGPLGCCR
Text: as §4

CCNc1cc(Nc2ccc(C(=O)N3CCC(N4CCOCC4)CC3)cc2OC)nc2[nH]cc(C(F)(F)F)c12 [Compound 1, (4-((4-(ethylamino)-3-(trifluoromethyl)-1H-pyrrolo[2,3-b]pyridine-6-yl)amino)-3-methoxyphenyl) (4-morpholinopiperidine-1-yl)methanone]
anticancer effect (PC-9 lung cancer cells; Compound 1 20 or 40 mg/kg concomitant with Gefitinib 10 mg/kg, PO QD, vs Gefitinib alone, FIG. 4): substantially reduced lung cancer (PC-9) cells | anticancer effect (PC-9 lung cancer cells; Compound 1 20 or 40 mg/kg concomitant with Osimertinib 3 mg/kg, PO QD, vs Osimertinib alone, FIG. 3): substantially reduced lung cancer (PC-9) cells | anticancer effect (PC-9 lung cancer cells; singular treatment with Compound 1, 40 mg/kg PO QD): no anticancer effect | EGFR expression (NCI-H2228; 0.5, 1.2 and 5 μM, 4 or 24 hours): reduced EGFR expression | p-AKT (S473) (NCI-H2228): reduction | p-Erk 1/2 (T202/Y204) (NCI-H2228): reduction | colony formation inhibition (PC-9 cell line): substantially inhibit formation of lung cancer cell colonies | cell growth inhibition effect [1]: improved cell growth inhibition effect compared to treatment with the same amount of Harmine | colony formation inhibition (H1975 cell line): substantially inhibit formation of lung cancer cell colonies | tumor suppression effect (3LL lung cancer; concomitant with PD-1, PD-L1 and CTLA-4 antibodies 10 mg/kg IP BIW, FIG. 6b): improved concomitant effect | tumor suppression effect (3LL lung cancer; singular treatment, 45, 60, 75 mg/kg po BID, FIG. 6a): insignificant tumor suppression effect | tumor suppression effect (EMT6 breast cancer): insignificant tumor suppression effect | inhibition at 1 µM (LRRK2 (G2019S)): ≥ 59% | inhibition at 1 µM (INSR): 40 to 59% | inhibition at 1 µM (STK33): ≥ 59% | inhibition at 1 µM (GAK): ≥ 59% | inhibition at 1 µM (HUNK): 40 to 59% | inhibition at 1 µM (PHKG1): ≥ 59% | inhibition at 1 µM (PLK4): 40 to 59% | inhibition at 1 µM (LRRK2): 40 to 59% | inhibition at 1 µM (CAMKK2): 40 to 59% | inhibition at 1 µM (PHKG2): ≥ 59% | inhibition at 1 µM (JNK3): 40 to 59%

Source: patent US20220218715A1, “NOVEL USE OF PYRROLO-PYRIDINE DERIVATIVE COMPOUND FOR PREVENTION AND/OR TREATMENT OF CANCER” (VORONOI CO., LTD., priority 2019, published 2022)
